Measurements published in publication PMC5507300, “Antibacterial small molecules targeting the conserved TOPRIM domain of DNA gyrase” (PLoS ONE, 2017).
Values after ≈ are worked out from the molar mass of the structure shown. Values joined by “and” are separate entries in the source; they are usually repeats but may differ in a detail not shown here. Equal values may be shown once. Read-outs that look alike come from different tables or passages of the source.

Key:
Format in all cases: cell-based
[1] = system: E. coli MB2884 (clinical isolate); assay: Broth microdilution MIC, E. coli MB2884; conditions: Escherichia coli
Text: (§1) E. coli HS151 (ΔtolC) has been described previously. […] E. coli BW25113 and the Keio gene deletion collection based on BW25113 [25] were obtained from Thermo Fisher Scientific (Waltham, MA) and described in [26]. The plasmid-borne FQ resistance determinant, qnrVC3 [27], was kindly provided by D. Hooper (Massachusetts General Hospital). […] MB2884 (E. coli) and CL15245 (K. pneumoniae) are clinical isolates from the Merck & Co., Inc., Kenilworth, NJ, USA, strain collection. S. aureus COL is a methicillin-resistant clinical isolate.
(§2) Compound doubling dilutions were prepared in 100% DMSO (Sigma Aldrich) and 2 μL of each dilution was transferred to a 96-well plate with lid (Thermo Scientific). Inoculum for all MIC testing was prepared using the BBL Prompt Inoculation System (Becton Dickinson, Franklin Lakes, NJ USA) as described by the manufacturer to produce a suspension of cells at approximately 1.5 x 10^8 colony forming units (CFU)/mL [34–36] and a further dilution (1:1000) was made into cation adjusted Mueller-Hinton broth (CAMH broth, Becton-Dickinson). One hundred μL of this inoculum were then transferred to each well of the 96-well plate containing diluted compound (above). Plates were covered and incubated overnight (18 hrs.) at 37°C.

[2] = system: E. coli HS151 (ΔtolC); assay: microbe, parasite or virus in culture; conditions: Escherichia coli
Text: as §1, §2

[3] = system: P. aeruginosa(effluxΔ) MB5890; assay: microbe, parasite or virus in culture; conditions: Pseudomonas aeruginosa
Text: as §1, §2

[4] = system: S. aureus (MRSA) COL; assay: Broth microdilution MIC, S. aureus COL; conditions: Staphylococcus aureus, MRSA
Text: (§3) E. coli HS151 (ΔtolC) has been described previously. Gyrase inhibitor-resistant isolates (GYR101-108) were derived by selection for spontaneous resistance to MRL-770 or MRL-423 (Fig 1) in E. coli HS151 as described below. E. coli BW25113 and the Keio gene deletion collection based on BW25113 [25] were obtained from Thermo Fisher Scientific (Waltham, MA) and described in [26]. The plasmid-borne FQ resistance determinant, qnrVC3 [27], was kindly provided by D. Hooper (Massachusetts General Hospital). MB9796 (A. baumannii) is a derivative of MB9797 (ATCC19606) lacking lipopolysaccharide. The efflux-defective P. aeruginosa strain MB5890 (CB398) is a derivative of MB5919 (PAO1). MB2884 (E. coli) and CL15245 (K. pneumoniae) are clinical isolates from the Merck & Co., Inc., Kenilworth, NJ, USA, strain collection. S. aureus COL is a methicillin-resistant clinical isolate.
as §2

[5] = system: A. baumanii MB9797 (ATCC19606); assay: Broth microdilution MIC, A. baumannii MB9797; conditions: Acinetobacter baumannii
Text: as §3, §2

[6] = system: A. baumannii ΔlpxC MB9796; assay: Broth microdilution MIC, A. baumannii MB9796; conditions: Acinetobacter baumannii
Text: as §3, §2

[7] = system: K. pneumoniae CL15245 (clinical isolate); assay: Broth microdilution MIC, K. pneumoniae CL15245; conditions: Klebsiella pneumoniae
Text: as §1, §2

[8] = system: P. aeruginosa MB5919 (PAO1); assay: Broth microdilution MIC, P. aeruginosa MB5919; conditions: Pseudomonas aeruginosa
Text: as §1, §2

[9] = system: E. coli GYR108 GyrB L470I/V467L; assay: microbe, parasite or virus in culture; conditions: Escherichia coli
Text: as §1, §2
(§4) After the agar solidified, 5 μL of a saturated bacterial culture, grown in CAMH broth, were dispensed on the agar surface and allowed to dry at room temperature. […] After the surface dried at room temperature the plate was incubated at 37°C overnight. […] Genomic DNA from the parent strain (E. coli HS151) and purified (restreaked) resistant isolates was obtained with a GeneJET genomic DNA purification kit according to the manufacturer’s instructions (Fisher Scientific). Assembled whole genome mutant sequences were then compared to the parent strain and polymorphisms were identified as described.

[10] = system: E. coli GYR105 GyrB T469K; assay: microbe, parasite or virus in culture; conditions: Escherichia coli
Text: as §1, §2, §4

[11] = system: E. coli GYR106 GyrB F513L/A468V; assay: microbe, parasite or virus in culture; conditions: Escherichia coli
Text: as §1, §2, §4

[12] = system: E. coli GYR101 GyrB F513L; assay: microbe, parasite or virus in culture; conditions: Escherichia coli
Text: as §1, §2, §4

[13] = system: E. coli GYR104 GyrB L470I; assay: microbe, parasite or virus in culture; conditions: Escherichia coli
Text: as §1, §2, §4

[14] = system: E. coli GYR102 GyrB E466EV; assay: microbe, parasite or virus in culture; conditions: Escherichia coli
Text: as §1, §2, §4

[15] = system: E. coli GYR107 GyrB F513L/L422V; assay: microbe, parasite or virus in culture; conditions: Escherichia coli
Text: as §1, §2, §4

[16] = system: E. coli CIP101 GyrA D87N; assay: microbe, parasite or virus in culture; conditions: Escherichia coli
Experimental: as §2

[17] = system: E. coli GYR103 GyrB L446Q; assay: microbe, parasite or virus in culture; conditions: Escherichia coli
Text: as §3, §2
After the agar solidified, 5 μL of a saturated bacterial culture, grown in CAMH broth, were dispensed on the agar surface and allowed to dry at room temperature. […] To select for resistance, a 100 mm petri dish was filled with 25 mL CAMH agar containing 8 μg/mL MRL-770 or 0.5 μg/mL MRL-423 (Fig 1). The cells in 1 mL of an overnight culture of E. coli HS151 (~10^9 CFU/mL) were concentrated by centrifugation and spread onto the surface of an MRL-770 or MRL-423 containing plate. After the surface dried at room temperature the plate was incubated at 37°C overnight. Any colonies that arose were counted and an approximate frequency of resistance was calculated after confirming resistance by restreaking on media containg compound as well as measuring MICs (see Results). Genomic DNA from the parent strain (E. coli HS151) and purified (restreaked) resistant isolates was obtained with a GeneJET genomic DNA purification kit according to the manufacturer’s instructions (Fisher Scientific). Assembled whole genome mutant sequences were then compared to the parent strain and polymorphisms were identified as described.

[18] = system: HeLa Cell; assay: HeLa cell cytotoxicity; conditions: for EC50: Homo sapiens, HeLa, Average value (n = 2), cytotoxicity; for Fold above MIC: HeLa EC50 relative to MIC for E. coli HS151
[19] = Table 2, HS151, GyrB mutation none
[20] = read-out: E. coli HS151 MIC, S1 Table

Row | SMILES | MIC [1] | MIC ([2]; Table 1, HS151 E. coli ΔtolC) | MIC [2, 19] | MIC [2, 20] | MIC [3] | MIC [4] | MIC [5] | MIC [6] | MIC [7] | MIC [8] | MIC [9] | MIC [10] | MIC [11] | MIC [12] | MIC [13] | MIC [14] | MIC [15] | MIC [16] | MIC [17] | EC50 [18] | further results
1 | Cn1ncc2cc(-c3cnnn3C3CCN(C(=O)Nc4cc(Cl)cc(Cl)c4)CC3)ccc21 [MRL-423] | > 64 µg/mL | 0.25 µg/mL | 0.25 µg/mL | 0.53 µM | 1 µg/mL (≈ 2.13 µM) | > 64 µg/mL | > 64 µg/mL | 0.5 µg/mL (≈ 1.06 µM) | > 64 µg/mL | > 64 µg/mL | > 64 µg/mL | 1 µg/mL (≈ 2.13 µM) | > 64 µg/mL | 2 µg/mL (≈ 4.25 µM) | 1 µg/mL (≈ 2.13 µM) | > 64 µg/mL | > 64 µg/mL | 0.25 µg/mL (≈ 0.532 µM) | 0.5 µg/mL (≈ 1.06 µM) | 27.1 µM | MIC ([2]; Table 3, HS151): 0.25 µg/mL
2 | Cn1ncc2cc(-c3nnnn3C3CCN(C(=O)Nc4ccc(Cl)c(Cl)c4)CC3)ccc21 [MRL-1082] | > 64 µg/mL | 0.0625 µg/mL | 0.0625 µg/mL | 0.13 µM | 0.25 µg/mL (≈ 0.53 µM) | > 64 µg/mL | > 64 µg/mL | 0.5 µg/mL (≈ 1.06 µM) | > 64 µg/mL | > 64 µg/mL | 2 µg/mL (≈ 4.24 µM) | 0.25 µg/mL (≈ 0.53 µM) | > 64 µg/mL | > 64 µg/mL | 0.25 µg/mL (≈ 0.53 µM) | 8 µg/mL (≈ 17 µM) | > 64 µg/mL | 0.125 µg/mL (≈ 0.265 µM) | 0.0625 µg/mL (≈ 0.133 µM) | 18.2 µM | MIC ([2]; Fig 4 legend, E. coli HS151): 0.0625 µg/mL; Fold above MIC [18]: 140 fold
3 | COc1ccc(C)cc1NC(=O)N1CCC(n2nncc2-c2ccc3c(cnn3C)c2)CC1 [MRL-770] | > 64 µg/mL | 2 µg/mL | 2 µg/mL | 4.5 µM | 4 µg/mL (≈ 8.98 µM) | > 64 µg/mL | > 64 µg/mL | 4 µg/mL (≈ 8.98 µM) | > 64 µg/mL | > 64 µg/mL | > 64 µg/mL | 1 µg/mL (≈ 2.24 µM) | > 64 µg/mL | > 64 µg/mL | > 64 µg/mL | > 64 µg/mL | > 64 µg/mL | 2 µg/mL (≈ 4.49 µM) | > 64 µg/mL | > 100 µM | MIC ([2]; read-out: minimum inhibitory concentration (MIC), quoted in text with macromolecule labeling in E. coli JL553, strain not named at place, value equals HS151): 4.5 µM and 2 µg/mL; Fold above MIC [18]: > 22 fold
